These are literature values, as cited in patent publication US6767550B1, “Hydroxyapatite based drug delivery implant for cancer treatment” (Berkeley Advanced Biomaterials, Inc., priority 2000, dated 2004).

The conditions of data set [1]: in vivo.
For data set [2] the following is noted: 30 mg/m^2 intravenous bolus dose; 2.5 hours after administration.
The conditions of data set [3]: cumulative dose of 700 mg.m^2.

Consider `COc1cccc2c1C(=O)c1c(O)c3c(c(O)c1C2=O)C[C@@](O)(C(=O)CO)C[C@@H]3O[C@H]1C[C@H](N)[C@H](O)[C@H](C)O1` [doxorubicin], for which, in data set [1], the oral absorption result is “poor oral absorption”. In addition, the marro drug concentration in data set [2] was 0.52 µg/g. For the same molecule, the patients experiencing cardiotoxicity in data set [3] is 30-40%.
